The test deals with NKT cells. Put plainly: NKT cells in blood, spleen and liver of vaccinated C57BL/6 mice (flow cytometry). It is filed as in vivo. The note with it: vs untreated mice. The procedure:
B16-F10 mouse melanoma cell line in C57/BL6 mice provides a syngeneic model of spontaneous highly metastatic tumor. As shown in the diagram of FIG. 13, three groups of mice were injected with B16 melanoma cell lines. Only one group received the GD3 based vaccine, the other groups were a control group and α-galactosylceramide (α-GalCer), a potent and specific activator of mouse and human iNKT cells. These C57BL/6 mice were vaccinated weekly for 4 weeks followed by a week of rest (see FIG. 13). Mice where then euthanized to collect, blood, liver, and spleen for evaluation of NKT cells. Liver lymphocytes were collected by making mono-cellular suspension of liver obtained after enzymatic digestion. Collected lymphocytes were stained for CD3, CD4, TCRβ, NK1.1, CD49b and dead cells. In these experiments untreated and α-galactosylceramide (α-GalCer) treated mice were used as controls. Tumor size and mass was only recorded.
One week post last vaccination, mice were euthanized as per IACUC protocol and Natural Killer T cells were evaluated in blood, spleen, and liver by staining the isolated cells with anti-CD45, CD3, CD4, TCRb, CD49b and NK1.1 antibodies. The stained cells were analyzed on BD Fortessa and FlowJo 10 v.
Background: In flow cytometry, cells or beads pass a laser one at a time.

Entries after “also recorded” stand apart in the source; their conditions may differ.

Regarding `CCCCCCCCCCCCCCCCCCCCCCCCCC(=O)N[C@@H](CO[C@H]1O[C@H](CO)[C@H](O)[C@H](O)[C@H]1O)[C@H](O)[C@H](O)CCCCCCCCCCCCCC` [α-GalCer, α-galactosylceramide], for the setting “liver, weekly x4, one week after last vaccination”, the “NKT cells in the liver” value is reported as “increased; also recorded: accumulation”. Where the note is “spleen and blood”, the “NKT cells in spleen and blood” value was “no discernable differences”.

Values taken from US20220133872A1, “A MONOPHOSPHORYL LIPID-A LIPOSOME BASED CANCER VACCINE” (University of Florida Research Foundation, Inc., priority 2019, published 2022).
